Reference: patent US7691900B2, “Tocopherol derivatives with a long hydroxylated chain, which can be used as neurotrophics” (AxoGlia Therapeutics S.A., priority 2003, dated 2010)

Test system: microglial cells activated by LPS
Test: Release of TNF-α (ELISA) in LPS-activated microglial cell cultures
Assay type: cell-based
Conditions: microglia treated with 0.01 μg/ml LPS; 24 h activation; tested at 10^-5, 10^-6, 10^-7 M
Experimental: 2. Measurement of the Release of TNF-α
The expression of the TNF-a represents a parameter for microglial activation often analyzed in the literature. […] A 24 hrs activation by LPS leads to a high increase in the level of TNF-α expression detectable by the ELISA test.
In the experiments, the concentrations of TNF-α in the microglial cell cultures, treated with 0.01 μg/ml of LPS in the presence of TFA-10, TFA-12, TFA-14, TFA-16 and vitamin E, at concentrations of 10^−5, 10^−6 and 10^−7 M, were measured by the inventors after 24 hours activation.

vitamin E
activity on TNF-α production, in words: no activity
